The source of these data is patent US10960020B2, “Modulation of PCSK9 and LDLR through DRP1 inhibition” (THE BRIGHAM AND WOMEN'S HOSPITAL, INC., priority 2016, dated 2021).

Molecules are shown by their SMILES.

For the assay, the system named is PCSK9 secretion in HepG2 cells. As to the kind of experiment: Secreted PCSK9 ELISA, HepG2 media. To be noted: HepG2, 24 hours; chloroquine 50 μmol/L, Mdivi-1 50 μmol/L, MG132 0.3 μmol/L. Format: cell-based, human. A general note: An ELISA detects its analyte on a solid surface through an enzyme-linked reagent.

Method: Pitavastatin and T0901317 were synthesized and provided by Kowa Company, Ltd. (Tokyo, Japan), and treated at a dose of 1 μM in all experiments. […] Mdivi-1 in DMSO vehicle was added at a concentration of 50 μM in all experiments. Mdivi-1 in DMSO vehicle was added to cell culture media in a 50 mL tube, vortexed hard for several minutes and then incubated at 37° C. prior to adding to cells to ensure the compound was fully solubilized.
HepG2 cells were obtained from ATCC (Manassas, Va.), and cultured in EMEM with L-glutamine (ATCC) medium, 1% pen/strep, with and without 10% FBS (Thermo Fisher Scientific, Waltham, Mass.) in 12-well plates (Corning, Durham, N.C.). HepG2 cells were plated at a density of 60-70% prior to treatment to avoid clumping. […] Cell viability was assessed by Trypan Blue exclusion using live/dead cell counting on a Countess™ II LT automated cell counter (Thermo Fisher Scientific).

In the case of `CCN(CC)CCCC(C)Nc1ccnc2cc(Cl)ccc12` (stereo not shown) [chloroquine], the “PCSK9 secretion by ELISA (in words)” value is given as “increased”.
